pIC50: −log10 of the molar value.
Tests used:
PDE2A = biological target: T1, PDE2A (Homo sapiens, UniProt O00408); assay: Inhibition of recombinant PDE2A (expressed in baculovirus/SF21-cells), [3H]-cAMP SPA; format: biochemical
T1 construct: made in house; host or cells: SF21 insect cells (baculovirus)
Method in brief: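 Membrane fraction of baculovirus/SF21-expressed PDE2A was incubated 30 min at 37° C in Tris-HCl/MgCl2 pH 7.4 with 0.5 μM [3H]-cAMP and 1000 nM cGMP as activator. Product was detected by SPA scintillation. IC50 used a Hill-plot 2-parameter model.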

PDE10A = biological target: T2, PDE10A (Homo sapiens, UniProt Q9Y233); assay: Inhibition of recombinant PDE10A (baculovirus/SF21 system), [3H]-cAMP SPA; format: biochemical; details: recombinant PDE10A1, cytosolic; 0.1 μM [3H]-cAMP, 37° C., 30 minutes; read-out: PDE10A IC50
T2 construct: made in house; host or cells: SF21 insect cells (baculovirus)
T2 sequence (Q9Y233 1-779 isoform Q9Y233-1): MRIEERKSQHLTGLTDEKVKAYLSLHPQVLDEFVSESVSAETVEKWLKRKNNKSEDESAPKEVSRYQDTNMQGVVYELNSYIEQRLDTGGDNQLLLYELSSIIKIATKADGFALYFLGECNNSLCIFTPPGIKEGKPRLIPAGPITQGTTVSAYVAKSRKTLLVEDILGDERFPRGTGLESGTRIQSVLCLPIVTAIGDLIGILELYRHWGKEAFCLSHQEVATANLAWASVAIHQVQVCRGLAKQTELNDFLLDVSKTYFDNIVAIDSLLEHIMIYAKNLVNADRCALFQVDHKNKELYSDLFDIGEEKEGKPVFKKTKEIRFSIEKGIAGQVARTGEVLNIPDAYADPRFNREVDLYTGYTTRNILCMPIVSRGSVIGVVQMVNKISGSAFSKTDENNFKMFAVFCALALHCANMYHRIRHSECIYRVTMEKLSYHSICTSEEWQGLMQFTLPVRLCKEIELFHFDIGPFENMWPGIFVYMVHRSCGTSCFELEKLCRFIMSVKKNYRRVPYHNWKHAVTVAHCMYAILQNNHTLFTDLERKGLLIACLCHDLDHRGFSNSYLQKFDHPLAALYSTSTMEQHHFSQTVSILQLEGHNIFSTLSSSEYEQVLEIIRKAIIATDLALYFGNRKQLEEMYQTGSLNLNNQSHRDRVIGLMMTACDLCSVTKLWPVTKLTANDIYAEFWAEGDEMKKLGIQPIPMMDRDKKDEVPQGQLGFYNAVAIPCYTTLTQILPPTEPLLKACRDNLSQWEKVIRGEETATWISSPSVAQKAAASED

T1 sequence (O00408 whole entry): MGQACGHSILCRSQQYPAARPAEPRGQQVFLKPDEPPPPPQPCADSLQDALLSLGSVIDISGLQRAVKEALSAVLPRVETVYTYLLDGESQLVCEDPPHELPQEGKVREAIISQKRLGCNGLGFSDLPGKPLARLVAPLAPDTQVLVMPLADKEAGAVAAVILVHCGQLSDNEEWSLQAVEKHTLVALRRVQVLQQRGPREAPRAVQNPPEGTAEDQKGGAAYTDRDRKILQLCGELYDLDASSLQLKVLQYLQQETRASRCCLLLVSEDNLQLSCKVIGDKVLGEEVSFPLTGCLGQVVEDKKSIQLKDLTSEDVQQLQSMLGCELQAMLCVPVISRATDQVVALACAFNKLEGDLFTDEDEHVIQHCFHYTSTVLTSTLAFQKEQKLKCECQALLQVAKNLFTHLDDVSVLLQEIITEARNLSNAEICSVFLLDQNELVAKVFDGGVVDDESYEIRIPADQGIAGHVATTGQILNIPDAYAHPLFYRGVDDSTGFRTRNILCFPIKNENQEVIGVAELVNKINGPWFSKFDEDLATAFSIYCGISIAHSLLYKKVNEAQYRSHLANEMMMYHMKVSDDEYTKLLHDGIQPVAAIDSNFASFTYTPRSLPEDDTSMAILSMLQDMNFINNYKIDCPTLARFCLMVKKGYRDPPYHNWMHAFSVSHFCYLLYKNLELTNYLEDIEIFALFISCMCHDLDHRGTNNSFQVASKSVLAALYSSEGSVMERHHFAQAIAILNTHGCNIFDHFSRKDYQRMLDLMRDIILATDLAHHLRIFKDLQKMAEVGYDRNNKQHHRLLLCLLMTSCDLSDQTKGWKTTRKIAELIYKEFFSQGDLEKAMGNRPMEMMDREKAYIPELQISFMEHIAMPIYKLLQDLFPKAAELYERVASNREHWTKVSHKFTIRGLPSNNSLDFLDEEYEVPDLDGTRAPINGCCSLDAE

| Structure (SMILES) | melting point | pIC50 (PDE2A) | pIC50 (PDE10A) |
| --- | --- | --- | --- |
| Cc1nc(-c2cc(Cl)ccc2Cl)n2c1nnc1ccc(-c3cc(Cl)ccc3Cl)cc12 | 190 to 193 °C |  |  |
| Cc1nc(-c2cc(OC(C)C)ccc2F)n2c1nnc1ccc(-c3cc(OC(C)C)ccc3F)cc12 | 160.5 to 162 °C |  |  |
| CCOc1ccc(F)c(-c2ccc3nnc4c(C)nc(-c5cc(OCC)ccc5F)n4c3c2)c1 | 152 to 155 °C |  |  |
| CCCCOc1ccc(F)c(-c2nc(C)c3nnc4cc(F)ccc4n23)c1 | 91 to 94 °C |  |  |
| CCCOc1ccc(F)c(-c2nc(C)c3nnc4cc(F)ccc4n23)c1 | 119 to 122 °C |  |  |
| COc1cc2nnc3c(C)nc(-c4ccccc4Cl)n3c2cc1OC [Example 46, 1-(2-chlorophenyl)-7,8-dimethoxy-3-methylbenzo[e]imidazo[5,1-c][1,2,4]triazine] | 269 to 272 °C |  |  |
| COc1cc2nnc3c(C)nc(-c4ccccc4C)n3c2cc1OC [Example 49, 7,8-dimethoxy-3-methyl-1-o-tolylbenzo[e]imidazo[5,1-c][1,2,4]triazine] | 219 to 221 °C |  |  |
| COc1cc2nnc3c(C)nc(CC(C)C)n3c2cc1OC [Example 53, 1-isobutyl-7,8-dimethoxy-3-methylbenzo[e]imidazo[5,1-c][1,2,4]triazine] | 196 to 199 °C |  |  |
| COc1cc2nnc3c(C)nc(Br)n3c2cc1OC [Example 54, 1-bromo-7,8-dimethoxy-3-methylbenzo[e]imidazo[5,1-c][1,2,4]triazine] | 200 °C |  |  |
| COc1cc2nnc3c(C)nc(-c4cc(Cl)ccc4Cl)n3c2cc1OC [Example 55, 1-(2,5-dichlorophenyl)-7,8-dimethoxy-3-methylbenzo[e]imidazo[5,1-c][1,2,4]triazine] | 175 °C |  |  |
| COc1cc2nnc3c(C)nc(-c4cc(C)ccc4Cl)n3c2cc1OC [Example 56, 1-(2-chloro-5-methylphenyl)-7,8-dimethoxy-3-methylbenzo[e]imidazo[5,1-c][1,2,4]triazine] | 247 to 249 °C |  |  |
| COc1cc2nnc3c(C)nc(-c4ccccc4C(F)(F)F)n3c2cc1OC [Example 57, 7,8-dimethoxy-3-methyl-1-(2-(trifluoromethyl)phenyl)benzo[e]imidazo[5,1-c][1,2,4]triazine] | 147 to 150 °C |  |  |
| Cc1nc(-c2ccccc2Cl)n2c1nnc1cc(F)c(F)cc12 [Example 58, 1-(2-chlorophenyl)-7,8-difluoro-3-methylbenzo[e]imidazo[5,1-c][1,2,4]triazine] | 157 to 159 °C |  |  |
| COc1cc(OCc2ccccc2)cc2c1nnc1c(C)nc(-c3cnccc3C)n12 [Example 157, 8-(benzyloxy)-6-methoxy-3-methyl-1-(4-methylpyridin-3-yl)imidazo[5,1-c][1,2,4]benzotriazine] |  | 6.56 | 8.27 |
| Cc1cn(-c2ccc3nnc4c(C)nc(C5CCCCC5)n4c3c2)c(C2CCCCC2)n1 [Example 179, 1-Cyclohexyl-8-(2-cyclohexyl-4-methyl-imidazol-1-yl)-3-methyl-imidazo[5,1-c][1,2,4]benzotriazine] |  | 6.62 | 6.49 |
| Cc1nc(-c2cc(Cl)ccc2Cl)n2c1nnc1ccc(N3CCCCC3)cc12 [Example 180, 1-(2,5-Dichloro-phenyl)-3-methyl-8-piperidin-1-yl-imidazo[5,1-c][1,2,4]benzotriazine] |  | 8.16 | 7.30 |
| Cc1nc(-c2cc(Cl)ccc2Cl)n2c1nnc1ccc(N3CCOCC3)cc12 [Example 181, 1-(2,5-Dichloro-phenyl)-3-methyl-8-morpholin-4-yl-imidazo[5,1-c][1,2,4]benzotriazine] |  | 8.64 | 7.61 |
| Cc1cn(-c2ccc3nnc4c(C)nc(CC(C)C)n4c3c2)c(CC(C)C)n1 [Example 182, 1-Isobutyl-8-(2-isobutyl-4-methyl-imidazol-1-yl)-3-methyl-imidazo[5,1-c][1,2,4]benzotriazine] |  | 6.87 | 7.48 |
| Cc1nc(-c2ccccc2Cl)n2c1nnc1ccc(N3CCCCC3)cc12 [Example 183, 1-(2-Chloro-phenyl)-3-methyl-8-piperidin-1-yl-imidazo[5,1-c][1,2,4]benzotriazine] |  | 8.11 | 7.92 |

— US20100120763A1, “IMIDAZO[5,1-C][1,2,4]BENZOTRIAZINE DERIVATIVES AS INHIBITORS OF PHOSPHODIESTERASES” (priority 2008, published 2010)
